The values below come from ChEMBL document CHEMBL3217536, “Structureactivity relationships of gramicidin S analogs containing (-3-pyridyl)-,-dehydroalanine residues on membrane permeability” (Medchemcomm, 2011).

Data set [1] has as its system Escherichia coli. The experiment in a line: Antimicrobial activity against Escherichia coli K-12 W3110 after 20 hrs by liquid microdilution method in presence of PMBN. Format: functional. In general terms: In broth dilution the organism is exposed to a series of concentrations in liquid medium.
Data set [2] relates to Staphylococcus aureus. Put plainly: Antimicrobial activity against Staphylococcus aureus FDA 209P after 20 hrs by liquid microdilution method. It is filed as functional.
Data set [3] has as its system Escherichia coli. Put plainly: Antimicrobial activity against Escherichia coli K-12 W3110 assessed as decrease in cell survival after 30 mins by colony counting method. Format: functional. Particulars: K-12 W3110, 0.5 h.
Data set [4] relates to Staphylococcus aureus. Put plainly: Induction of cytoplasmic membrane disruption in Staphylococcus aureus FDA 209P assessed as change in potassium permeability after 30 mins. Particulars: for EC50: 0.5 h, read-out: ED50 (the source's name). Format: functional.
Data set [5] concerns Escherichia coli. Put plainly: Antimicrobial activity against Escherichia coli K-12 W3110 after 20 hrs by liquid microdilution method. It is filed as functional. Particulars: K-12 W3110, 20 h.
The subject of data set [6] is Escherichia coli. The experiment in a line: Induction of cytoplasmic membrane disruption in Escherichia coli K-12 W3110 assessed as change in potassium permeability after 30 mins. Format: functional. Particulars: K-12 W3110, 0.5 h, read-out: ED50 (the source's name).
Data set [7] relates to Staphylococcus aureus. Put plainly: Antimicrobial activity against Staphylococcus aureus FDA 209P assessed as decrease in cell survival after 30 mins by colony counting method. Format: functional. Particulars: 0.5 h.
Data set [8] can be described thus: Hemolytic activity against human erythrocytes. Format: ADME, cell-based, Erythrocyte. Particulars: read-out: ED50 (the source's name).

Converted amounts (≈) assume the structure as drawn. The source made the active and inactive calls. The rule behind the calls is not given here. *1 amine or outer side, *2 acyl side, *3 side chain or, on linkers, in order; H or OH if unused. Where a SMILES comes first, the peptide text is derived from it. [ ]: non-standard residue; d: D form. X1 = O=C(/C(=C/c1cccnc1)N[*:1])[*:2]; X2 = O=C(/C(=C/c1ccccc1)N[*:1])[*:2]; d3Pal = N[C@H](Cc1cccnc1)C(=O)O; Orn = NCCC[C@H](N)C(=O)O

Consider `CO[C@@H]1[C@@H](OC(N)=O)[C@@H](O)[C@H](Oc2ccc3c(O)c(NC(=O)c4ccc(O)c(CC=C(C)C)c4)c(=O)oc3c2C)OC1(C)C`, for which, in data set [1], the outcome was Active.

In general, MIC refers to the least concentration at which growth counts as inhibited. The term LC50 denotes the concentration that kills 50% of the test population. Consider `CC(C)C[C@@H]1NC(=O)[C@H](C)NC(=O)[C@H](C(C)C)NC(=O)[C@@H]2CCCN2C(=O)/C(=C/c2cccnc2)NC(=O)[C@H](CC(C)C)NC(=O)[C@H](C)NC(=O)[C@H](C(C)C)NC(=O)[C@@H]2CCCN2C(=O)/C(=C/c2cccnc2)NC1=O` (cyclo(AL[X1]PVAL[X1]PV)), for which the minimum inhibitory concentration (MIC) is 114 µM (≈ 120 µg/mL) in data set [2] and over 114 µM in data set [5]. Moreover, the LC50 is over 100 µM in data set [3] and 50 µM in data set [7]. The EC50 is 50 µM in data set [4] and over 100 µM in data set [6]. In data set [8], the HC50 is 50 µM.

Turning to `CC(C)C[C@@H]1NC(=O)[C@H](C)NC(=O)[C@H](C(C)C)NC(=O)[C@@H]2CCCN2C(=O)/C(=C/c2cccnc2)NC(=O)[C@H](CC(C)C)NC(=O)[C@H](CCCN)NC(=O)[C@H](C(C)C)NC(=O)[C@@H]2CCCN2C(=O)/C(=C/c2cccnc2)NC1=O` (cyclo(AL[X1]PV[Orn]L[X1]PV)), the results for the MIC in data set [2] and in data set [5] were 13 µM (≈ 14.3 µg/mL) and 106 µM (≈ 116 µg/mL), respectively. For the same molecule, the median lethal concentration (LC50) in data set [3] was over 100 µM; in data set [7], 10 µM. Moreover, the EC50 was 10 µM in data set [4] and over 100 µM in data set [6]. In data set [8], the HC50 stood at 50 µM.

On to `CC(C)C[C@@H]1NC(=O)[C@H](CCCN)NC(=O)[C@H](C(C)C)NC(=O)[C@@H]2CCCN2C(=O)/C(=C/c2cccnc2)NC(=O)[C@H](CC(C)C)NC(=O)[C@H](CCCN)NC(=O)[C@H](C(C)C)NC(=O)[C@@H]2CCCN2C(=O)/C(=C/c2cccnc2)NC1=O` (cyclo(L[X1]PV[Orn]L[X1]PV[Orn])), for which the MIC in data set [2] was determined as 6 µM (≈ 6.84 µg/mL); in data set [5], 26 µM (≈ 29.6 µg/mL). In addition, the LC50 in data set [3] is 50 µM; in data set [7], 10 µM. For the same molecule, the result in data set [1] was inactive. In data set [4], the Activity result was “Dose-dependent effect”. For the same molecule, the EC50 in data set [4] came to 5 µM; in data set [6], 50 µM. Besides, the HC50 in data set [8] is over 100 µM.

Take `CC(C)C[C@@H]1NC(=O)[C@H](CCCN)NC(=O)[C@H](C(C)C)NC(=O)[C@@H]2CCCN2C(=O)/C(=C/c2ccccc2)NC(=O)[C@H](CC(C)C)NC(=O)[C@H](CCCN)NC(=O)[C@H](C(C)C)NC(=O)[C@@H]2CCCN2C(=O)/C(=C/c2cccnc2)NC1=O` (cyclo(L[X2]PV[Orn]L[X1]PV[Orn])): the figures for the MIC in data set [2] and in data set [5] were 3 µM (≈ 3.42 µg/mL) and 26 µM (≈ 29.6 µg/mL), respectively. Besides, the LC50 in data set [3] was 50 µM; in data set [7], 10 µM. Moreover, the figures for the EC50 in data set [4] and in data set [6] were 5 µM and 50 µM, respectively. Also, in data set [8], the HC50 was 20 µM.

For `CC(C)C[C@@H]1NC(=O)[C@H](CCCN)NC(=O)[C@H](C(C)C)NC(=O)[C@@H]2CCCN2C(=O)/C(=C/c2ccccc2)NC(=O)[C@H](CC(C)C)NC(=O)[C@H](CCCN)NC(=O)[C@H](C(C)C)NC(=O)[C@@H]2CCCN2C(=O)/C(=C/c2ccccc2)NC1=O` (cyclo(L[X2]PV[Orn]L[X2]PV[Orn])), the MIC in data set [2] came to 3 µM (≈ 3.41 µg/mL); in data set [5] it was 26 µM (≈ 29.6 µg/mL). The median lethal concentration (LC50) in data set [3] amounted to 20 µM; in data set [7], 5 µM. In addition, the EC50 worked out at 5 µM in data set [4] and 20 µM in data set [6]. In addition, in data set [8], the HC50 amounted to 5 µM.

Regarding `CC(C)C[C@@H]1NC(=O)[C@H](CCCN)NC(=O)[C@H](C(C)C)NC(=O)[C@@H]2CCCN2C(=O)[C@@H](Cc2cccnc2)NC(=O)[C@H](CC(C)C)NC(=O)[C@H](CCCN)NC(=O)[C@H](C(C)C)NC(=O)[C@@H]2CCCN2C(=O)[C@@H](Cc2cccnc2)NC1=O` (cyclo(L[d3Pal]PV[Orn]L[d3Pal]PV[Orn])), the MIC in data set [2] and in data set [5] was 50 µM (≈ 57.2 µg/mL) each time. Besides, the median lethal concentration (LC50) was 100 µM in data set [3] and 20 µM in data set [7]. Also, the values for the EC50 in data set [4] and in data set [6] were 20 µM and 50 µM, respectively. In data set [8], the HC50 was over 100 µM.

Take `CC(C)C[C@@H]1NC(=O)[C@H](CCCN)NC(=O)[C@H](C(C)C)NC(=O)[C@@H]2CCCN2C(=O)[C@@H](Cc2ccc(O)cc2)NC(=O)[C@H](CC(C)C)NC(=O)[C@H](CCCN)NC(=O)[C@H](C(C)C)NC(=O)[C@@H]2CCCN2C(=O)[C@@H](Cc2ccc(O)cc2)NC1=O` (cyclo(L[dY]PV[Orn]L[dY]PV[Orn])): the MIC was 3 µM (≈ 3.52 µg/mL) in data set [2] and 26 µM (≈ 30.5 µg/mL) in data set [5]. In addition, the HC50 in data set [8] amounted to 10 µM.

Regarding `CC(C)C[C@@H]1NC(=O)[C@H](CCCN)NC(=O)[C@H](C(C)C)NC(=O)[C@@H]2CCCN2C(=O)[C@@H](Cc2ccccc2)NC(=O)[C@H](CC(C)C)NC(=O)[C@H](CCCN)NC(=O)[C@H](C(C)C)NC(=O)[C@@H]2CCCN2C(=O)[C@@H](Cc2ccccc2)NC1=O` [GRAMICIDIN S] (cyclo(L[dF]PV[Orn]L[dF]PV[Orn])), the MIC in data set [2] stood at 3 µM (≈ 3.42 µg/mL); in data set [1] (K-12 W3110, 20 h), 4 µg/mL; in data set [5] it was 13 µM (≈ 14.8 µg/mL). For the same molecule, the values for the median lethal concentration (LC50) in data set [3] and in data set [7] were 20 µM and 5 µM, respectively. Moreover, the Activity entry in data set [4] was “Dose-dependent effect”. Moreover, the EC50 in data set [4] came out at 2 µM; in data set [6], 20 µM. In data set [8], the HC50 was found to be 5 µM.
